The experiment has as its target HPK1 (MAP4K1) (Homo sapiens, UniProt Q92918). The experiment can be described thus: FRET Assay for HPK1 (MAP4K1): one step binding assay, displacement of labeled tracer. The following applies: for inhibition at 1 µM: 1 μM compound; for inhibition at 1 µM / inhibition at 10 µM: FRET ratio 665/620, percent of control; for inhibition at 10 µM: 10 μM compound; for IC50: dose response curve, nonlinear regression. In outline: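 TR-FRET tracer-displacement binding assay. GST-tagged HPK1 (10 nM) and Eu-anti-GST antibody (4 nM) were pre-incubated with compound on ice for 15 min in 50 mM HEPES pH 7.5, 10 mM MgCl2, 1 mM EGTA, 0.01% Brij-35 (3% DMSO final). Kinase Tracer 222 (20 nM) was then added for 1 h at room temperature. IC50 came from nonlinear regression of percent of control; percent inhibition was also given at 1.0 and 10.0 μM.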

Structures are written as SMILES.

HPK1 (MAP4K1), sequence (Q92918 whole entry): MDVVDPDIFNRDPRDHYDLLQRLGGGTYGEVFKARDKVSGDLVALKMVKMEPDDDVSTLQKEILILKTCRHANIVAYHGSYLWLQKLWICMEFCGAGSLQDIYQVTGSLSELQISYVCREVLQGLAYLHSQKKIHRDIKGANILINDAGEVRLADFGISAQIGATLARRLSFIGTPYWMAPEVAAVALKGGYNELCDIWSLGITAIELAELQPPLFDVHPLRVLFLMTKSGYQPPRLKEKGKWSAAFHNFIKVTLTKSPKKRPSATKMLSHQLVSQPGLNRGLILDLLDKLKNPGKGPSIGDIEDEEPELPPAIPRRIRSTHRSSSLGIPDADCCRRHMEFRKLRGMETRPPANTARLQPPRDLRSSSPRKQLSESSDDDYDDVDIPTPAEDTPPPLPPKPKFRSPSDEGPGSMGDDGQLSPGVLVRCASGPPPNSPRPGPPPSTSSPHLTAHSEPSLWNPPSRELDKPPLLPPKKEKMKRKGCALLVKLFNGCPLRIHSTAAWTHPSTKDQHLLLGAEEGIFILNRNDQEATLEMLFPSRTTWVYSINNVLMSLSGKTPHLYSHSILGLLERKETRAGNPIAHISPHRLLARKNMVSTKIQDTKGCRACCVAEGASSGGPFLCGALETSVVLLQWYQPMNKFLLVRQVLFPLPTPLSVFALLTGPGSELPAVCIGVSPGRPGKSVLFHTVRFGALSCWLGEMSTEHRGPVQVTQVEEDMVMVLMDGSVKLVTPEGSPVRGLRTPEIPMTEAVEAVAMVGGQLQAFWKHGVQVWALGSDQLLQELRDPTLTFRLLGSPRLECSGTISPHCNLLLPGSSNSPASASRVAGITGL

As a reminder, the inhibition is the percentage by which the read-out fell short of the control. As usually defined, the IC50 is the concentration needed to halve the response being measured. Turning to `CCS(=O)(=O)n1ccc(N/C(C)=C2\C(=O)Nc3cnc(-c4cnccc4C)cc32)n1` [Example 94, (Z)-3-(1-((1-(Ethylsulfonyl)-1H-pyrazol-3-yl)amino)ethylidene)-5-(4-methylpyridin-3-yl)-1H-pyrrolo[2,3-c]pyridin-2(3H)-one], the inhibition at 1 µM was determined as 66.8%, the inhibition at 10 µM was 75.4% and the IC50 is less than 50 nM.

`COc1ccncc1-c1cc2c(cn1)NC(=O)/C2=C(/C)Nc1ccn(C(C)(C)C#N)n1` [Example 95, (Z)-2-(3-((1-(5-(4-Methoxypyridin-3-yl)-2-oxo-1H-pyrrolo[2,3-c]pyridin-3(2H)-ylidene)ethyl)amino)-1H-pyrazol-1-yl)-2-methylpropanenitrile]: the inhibition at 1 µM turned out to be 75.5%, the inhibition at 10 µM is 75.7% and the IC50 is less than 50 nM.

Take `C/C(Nc1ccc(N2CCN(C3CC3)CC2)nc1)=C1/C(=O)Nc2cnc(-c3cnccc3C)cc21` [Example 96, (Z)-3-(1-((6-(4-Cyclopropylpiperazin-1-yl)pyridin-3-yl)amino)ethylidene)-5-(4-methylpyridin-3-yl)-1H-pyrrolo[2,3-c]pyridin-2(3H)-one]: the inhibition at 1 µM stood at 68.6%, the inhibition at 10 µM was found to be 73.5% and the IC50 was less than 50 nM.

With `C/C(Nc1ccn(C(C)(C)C(N)=O)n1)=C1/C(=O)Nc2cnc(-c3cnccc3C)cc21` [Example 97, (Z)-2-Methyl-2-(3-((1-(5-(4-methylpyridin-3-yl)-2-oxo-1H-pyrrolo[2,3-c]pyridin-3(2H)-ylidene)ethyl)amino)-1H-pyrazol-1-yl)propanamide], the inhibition at 1 µM came out at 59%, the inhibition at 10 µM is 59.9% and the IC50 was in the range of 100 to 500 nM.

Take `C/C(Nc1ccn(C(C)(C)C#N)n1)=C1/C(=O)Nc2cnc(-c3ccccc3C)cc21` [Example 98, (Z)-2-Methyl-2-(3-((1-(2-oxo-5-(o-tolyl)-1H-pyrrolo[2,3-c]pyridin-3(2H)-ylidene)ethyl)amino)-1H-pyrazol-1-yl)propanenitrile]: the inhibition at 1 µM stood at 61%, the inhibition at 10 µM was found to be 69% and the IC50 lay within 50 to 100 nM.

Take `C/C(Nc1ccn(C(C)C)n1)=C1/C(=O)Nc2cnc(-c3cnccc3C)cc21` [Example 99, (Z)-3-(1-((1-Isopropyl-1H-pyrazol-3-yl)amino)ethylidene)-5-(4-methylpyridin-3-yl)-1H-pyrrolo[2,3-c]pyridin-2(3H)-one]: the inhibition at 1 µM turned out to be 70.1%, the inhibition at 10 µM stood at 78.6% and the IC50 is 50 to 100 nM.

Take `C/C(Nc1ccn(C)n1)=C1/C(=O)Nc2ccc(-c3cnccc3C)cc21` [Example 100, (Z)-3-(1-((1-Methyl-1H-pyrazol-3-yl)amino)ethylidene)-5-(4-methylpyridin-3-yl)indolin-2-one]: the inhibition at 1 µM was 72.8%, the inhibition at 10 µM is 77% and the half-inhibitory concentration (IC50) was less than 50 nM.

As to `C/C(Nc1ccn(CCN2CCOCC2)n1)=C1/C(=O)Nc2cnc(-c3cnccc3C)cc21` [Example 101, (Z)-5-(4-Methylpyridin-3-yl)-3-(1-((1-(2-morpholinoethyl)-1H-pyrazol-3-yl)amino)ethylidene)-1H-pyrrolo[2,3-c]pyridin-2(3H)-one], the inhibition at 1 µM is 68%, the inhibition at 10 µM was 81.8% and the IC50 was less than 50 nM.

As for `C/C(Nc1ccn(C2(C#N)CC2)n1)=C1/C(=O)Nc2cnc(-c3cnccc3C)cc21` [Example 102, (Z)-1-(3-((1-(5-(4-Methylpyridin-3-yl)-2-oxo-1H-pyrrolo[2,3-c]pyridin-3(2H)-ylidene)ethyl)amino)-1H-pyrazol-1-yl)cyclopropanecarbonitrile], the inhibition at 1 µM amounted to 81.6%, the inhibition at 10 µM came out at 89.7% and the IC50 was less than 50 nM.

Regarding `C/C(Nc1ccn(CC2CC2)n1)=C1/C(=O)Nc2cnc(-c3cnccc3C)cc21` [Example 103, (Z)-3-(1-((1-(Cyclopropylmethyl)-1H-pyrazol-3-yl)amino)ethylidene)-5-(4-methylpyridin-3-yl)-1H-pyrrolo[2,3-c]pyridin-2(3H)-one], the inhibition at 1 µM worked out at 74.5%, the inhibition at 10 µM turned out to be 83.4% and the IC50 was less than 50 nM.

Consider `C/C(Nc1ccn(CC(C)(C)O)n1)=C1/C(=O)Nc2cnc(-c3cnccc3C)cc21` [Example 104, (Z)-3-(1-((1-(2-Hydroxy-2-methylpropyl)-1H-pyrazol-3-yl)amino)ethylidene)-5-(4-methylpyridin-3-yl)-1H-pyrrolo[2,3-c]pyridin-2(3H)-one], for which the inhibition at 1 µM was found to be 74.6%, the inhibition at 10 µM worked out at 79.8% and the IC50 is less than 50 nM.

Take `C/C(Nc1cnn(C(C)(C)C#N)c1)=C1/C(=O)Nc2ccc(-c3cnccc3C)nc21` [Example 105, (Z)-2-Methyl-2-(4-((1-(5-(4-methylpyridin-3-yl)-2-oxo-1H-pyrrolo[3,2-b]pyridin-3(2H)-ylidene)ethyl)amino)-1H-pyrazol-1-yl)propanenitrile]: the inhibition at 1 µM is 79.8%, the inhibition at 10 µM stood at 84.4% and the IC50 is less than 50 nM.

Consider `C/C(Nc1ccn(C(C)(C)C#N)n1)=C1/C(=O)Nc2cnc(-c3cncc(N)c3C)cc21` [Example 106, (Z)-2-(3-((1-(5-(5-Amino-4-methylpyridin-3-yl)-2-oxo-1H-pyrrolo[2,3-c]pyridin-3(2H)-ylidene)ethyl)amino)-1H-pyrazol-1-yl)-2-methylpropanenitrile], for which the inhibition at 1 µM was 80%, the inhibition at 10 µM turned out to be 92.4% and the IC50 was less than 50 nM.

Regarding `C/C(Nc1ccc(N2CCOCC2)cn1)=C1/C(=O)Nc2cnc(-c3cnccc3C)cc21` [Example 107, (Z)-5-(4-Methylpyridin-3-yl)-3-(1-((5-morpholinopyridin-2-yl)amino)ethylidene)-1H-pyrrolo[2,3-c]pyridin-2(3H)-one], the inhibition at 1 µM came out at 72.3%, the inhibition at 10 µM came to 80% and the IC50 was less than 50 nM.

Take `COc1cccc(F)c1-c1cc2c(cn1)NC(=O)/C2=C(/C)Nc1ccc(N2CCNCC2)cc1` [Example 108, (Z)-5-(2-Fluoro-6-methoxyphenyl)-3-(1-((4-(piperazin-1-yl)phenyl)amino)ethylidene)-1H-pyrrolo[2,3-c]pyridin-2(3H)-one]: the inhibition at 1 µM is 74.2%, the inhibition at 10 µM came to 77% and the IC50 was less than 50 nM.

As to `C/C(Nc1ccc(N(C)C)nc1)=C1/C(=O)Nc2cnc(-c3cnccc3C)cc21` [Example 109, (Z)-3-(1-((6-(Dimethylamino)pyridin-3-yl)amino)ethylidene)-5-(4-methylpyridin-3-yl)-1H-pyrrolo[2,3-c]pyridin-2(3H)-one], the inhibition at 1 µM is 72.4%, the inhibition at 10 µM amounted to 83.4% and the IC50 is less than 50 nM.

Regarding `C/C(Nc1ccn(CCC(C)(C)O)n1)=C1/C(=O)Nc2cnc(-c3cnccc3C)cc21` [Example 111], the inhibition at 1 µM was determined as 74.4%, the inhibition at 10 µM stood at 74.3% and the IC50 is less than 50 nM.

For `CNC(=O)Cn1ccc(N/C(C)=C2\C(=O)Nc3cnc(-c4cnccc4C)cc32)n1` [Example 114], the inhibition at 1 µM came out at 73.3%, the inhibition at 10 µM was 75.9% and the IC50 is less than 50 nM.

Regarding `COc1cccc(F)c1-c1cc2c(cn1)NC(=O)/C2=C(/C)Nc1ccc(N(C)C)nc1` [Example 117, (Z)-3-(1-((6-(Dimethylamino)pyridin-3-yl)amino)ethylidene)-5-(2-fluoro-6-methoxyphenyl)-1H-pyrrolo[2,3-c]pyridin-2(3H)-one], the inhibition at 1 µM is 54.8% and the inhibition at 10 µM was 56.4%.

`CNC(=O)C(C)(C)n1ccc(N/C(C)=C2\C(=O)Nc3cnc(-c4cnccc4C)cc32)n1` [Example 118, (Z)-N,2-dimethyl-2-(3-((1-(5-(4-methylpyridin-3-yl)-2-oxo-1H-pyrrolo[2,3-c]pyridin-3(2H)-ylidene)ethyl)amino)-1H-pyrazol-1-yl)propanamide]: the inhibition at 1 µM stood at 78.4%, the inhibition at 10 µM was found to be 83.3% and the IC50 was less than 50 nM.

In the case of `C/C(Nc1c(C)nn(C)c1C)=C1/C(=O)Nc2cnc(-c3cnccc3C)cc21` [Example 119, (Z)-5-(4-Methylpyridin-3-yl)-3-(1-((1,3,5-trimethyl-1H-pyrazol-4-yl)amino)ethylidene)-1H-pyrrolo[2,3-c]pyridin-2(3H)-one], the inhibition at 1 µM was 52.6%, the inhibition at 10 µM is 67% and the IC50 is greater than 500 nM.

For `CC(=O)N1CC(n2ccc(N/C(C)=C3\C(=O)Nc4cnc(-c5cnccc5C)cc43)n2)C1` [Example 120, (Z)-3-(1-((1-(1-Acetylazetidin-3-yl)-1H-pyrazol-3-yl)amino)ethylidene)-5-(4-methylpyridin-3-yl)-1H-pyrrolo[2,3-c]pyridin-2(3H)-one], the inhibition at 1 µM was found to be 2.17% and the inhibition at 10 µM worked out at 49%.

As for `C/C(Nc1ccn(C)n1)=C1/C(=O)Nc2cnc(-c3c(C)cccc3F)cc21` [Example 121, (Z)-5-(2-Fluoro-6-methylphenyl)-3-(1-((1-methyl-1H-pyrazol-3-yl)amino)ethylidene)-1H-pyrrolo[2,3-c]pyridin-2(3H)-one], the inhibition at 1 µM came to 78.9%, the inhibition at 10 µM was 85.7% and the IC50 was less than 50 nM.

Consider `C/C(Nc1cc[nH]n1)=C1/C(=O)Nc2cnc(-c3cnccc3C)cc21` [Example 122, (Z)-3-(1-((1H-Pyrazol-3-yl)amino)ethylidene)-5-(4-methylpyridin-3-yl)-1H-pyrrolo[2,3-c]pyridin-2(3H)-one], for which the inhibition at 1 µM was determined as 87.3%, the inhibition at 10 µM came to 92.6% and the IC50 was less than 50 nM.

The values above are taken from patent US20230009626A1 (ICHNOS SCIENCES S.A., priority 2018, published 2023).
